The test system of one experiment is MV3 cells. The experiment is described as follows: Detached/adhered viability assay, ethidium homodimer staining, MV3. The experiment is classed as cell-based, human. The settings on record: for cell death: 24 hours of WGA. Here is the method:
(§1) Bleb formation was inhibited using wheat germ agglutinin (WGA), a lectin that reduces plasma membrane deformability by crosslinking components of the glycocalyx. […] To investigate putative bleb function as a driver of anchorage-independent cell survival assays were designed that consistently minimized both cell-substrate and cell-cell attachment over a period of 24 hours. This was accomplished by seeding cells at very low density (approx. 250 or 100 cells/ml) in non-adherent culture dishes under constant gentle agitation. For controls, cells were grown at identical concentrations in adherent variants of the same culture dishes. Together, this generated pairs of ‘detached’ and ‘adhered’ cell populations in paired same-day experiments.
Detached/Adhered Cell Culture. […] Drug treatments, solvent-only controls, or CellEvent caspase activity sensor were added to suspensions if appropriate to the experiment, and then immediately transferred to both an uncoated (for detached cells) and ibiTreated (for adhered cells) 8-well ibidi u-slide (ibidi cat #80821 and 80826) at 200 μl/well. Both slides were stored at 37° C. and 5% CO2 for either 24 hours (hrs) for viability assays, 3 hrs for ERK activity assays or 4 hours for caspase activation assays. Uncoated slides (detached) were nutated at 20 rpm during this time. […] For experiments using MAPKi A375 cells, Dabrafenib and Trametinib treatment was continued over the course of the experiment. […]
Viability, ERK Activity, and Caspase ActivityCell Counting Assays. Viability, ERK activity, and caspase activity assays were analyzed using live-cell fluorescent and phase-contrast microscopy, performed on a Nikon Ti microscope equipped with an environmental chamber held at 37° C. and 5% CO2 at 20× magnification. […] Live and dead cells (as identified by significant cellular ethidium signal) were counted using the Cell Counter ImageJ plugin. For ERK activity assays, live cells carrying ERK-nKTR-GFP and H2B-mCherry were imaged after 3 hours of experimental conditions and high/low ERK activity cells were counted with Cell Counter ImageJ plugin. […]

Another experiment concerns A375 cells. In words: Detached/adhered viability assay, ethidium homodimer staining, A375. Conditions: for anoikis resistance (cell death adhered vs detached): 24 hours. The experiment is classed as cell-based, human. The method, then: as §1
Cell Culture and Reagents. MV3 cells were obtained from MD Anderson Cancer Center. A375 cells (ATCCR CRL1619) were acquired from ATCC. M498 cells were acquired from UT Southwestern.
Detached/Adhered Cell Culture. […] Drug treatments, solvent-only controls, or CellEvent caspase activity sensor were added to suspensions if appropriate to the experiment, and then immediately transferred to both an uncoated (for detached cells) and ibiTreated (for adhered cells) 8-well ibidi u-slide (ibidi cat #80821 and 80826) at 200 μl/well. Both slides were stored at 37° C. and 5% CO2 for either 24 hours (hrs) for viability assays, 3 hrs for ERK activity assays or 4 hours for caspase activation assays. Uncoated slides (detached) were nutated at 20 rpm during this time. […] For experiments using MAPKi A375 cells, Dabrafenib and Trametinib treatment was continued over the course of the experiment.
Cells Grown in VitroGel Coffins. VitroGel coffins were prepared by embedding MV3 or A375 cells in VitroGel 3D or RGD at 1:1 dilution according to manufacturer's instructions (TheWell Biosciences, sku #TWG001). […] A 1:1 solution of VitroGel and VitroGel Dilution Solution was made and added to cell suspension at a ratio of 4:1 (VitroGel: cells) using gentle pipetting until well-mixed (with care taken not to form bubbles). Cell/VitroGel solution was transferred to an 8-well uncoated ibidi μ-slide (ibidi cat #80821) at 100 μl/well, spread over the bottom of wells with a pipette tip, and allowed to polymerize at room temperature for 15 minutes. The remainder of the well was then filled with 10% FBS DMEM and slide was stored at 37° C. and 5% CO2 for either 24 hrs for viability assays, 3 hrs for ERK activity assays, or 1 hour for visualization of septins/PI3K activity.
Viability, ERK Activity, and Caspase ActivityCell Counting Assays. Viability, ERK activity, and caspase activity assays were analyzed using live-cell fluorescent and phase-contrast microscopy, performed on a Nikon Ti microscope equipped with an environmental chamber held at 37° C. and 5% CO2 at 20× magnification. For viability assays, cells were stained with ethidium homodimer-1 (Invitrogen cat #E1169) at 4 µM and Hoechst (ThermoFisher cat #H3570) at 10 μg/ml for 15 minutes before imaging. Live and dead cells (as identified by significant cellular ethidium signal) were counted using the Cell Counter ImageJ plugin. For ERK activity assays, live cells carrying ERK-nKTR-GFP and H2B-mCherry were imaged after 3 hours of experimental conditions and high/low ERK activity cells were counted with Cell Counter ImageJ plugin. Cells in which nuclear GFP signals were by eye higher than cytoplasmic signal (“brighter” nucleus visible within “darker” cytoplasm) were labelled ERK low, while cytoplasmic signals equal to or higher than nuclear signal (nucleus indistinguishable from cytoplasm or “darker” nucleus within “brighter” cytoplasm) were labelled ERK high. To control for unconscious bias in making this determination, the identity of all ERK experimental groups were blinded from the analyst. […]

`O=C(Nc1ccccc1)Nc1ccnc(Cl)c1` [FCF, forchlorfenuron]: the “anoikis resistance (cell death adhered vs detached)” value in the experiment with MV3 cells (MV3, 50 μM FCF, 24 hours) is “greatly disrupted anoikis resistance”; in the experiment with A375 cells (non-stressed A375, 50 μM FCF), “no appreciable effect”; in the experiment on A375 cells (pre-stressed A375, 50 μM FCF), “greatly disrupted anoikis resistance”.

Turning to wheat germ agglutinin [WGA], the cell death result was “little to none” in the experiment on MV3 cells (adhered MV3 cells); “high levels of cell death” in the experiment with MV3 cells (detached MV3 cells); “increased cell death” in the experiment with A375 cells (detached A375 pre-incubated 48 hours with 10 nM Dabrafenib and 1 nM Trametinib, WGA); “unaffected” in the experiment on A375 cells (unstressed A375 cells, adhered or detached, 24 hours of WGA). Also, the viability entry in the experiment on A375 cells (adhered A375 pre-incubated 48 hours with 10 nM Dabrafenib and 1 nM Trametinib, WGA) is recorded as “minimal change in viability”. Besides, the “anoikis resistance upon bleb inhibition” value in the experiment with A375 cells (pre-stressed A375 cells (overconfluent for 48 hours), WGA) is reported as “strongly dependent upon blebbing”.

These data come from patent publication US20250268980A1, “AN ANTICANCER THERAPY TARGETING RAS AND OTHER ONCOGENIC SIGNALS BY INHIBITION OF DYNAMIC BLEBBING AND/OR SEPTINS” (THE BOARD OF REGENTS OF THE UNIVERSITY OF TEXAS SYSTEM, priority 2022, published 2025).
